This is an account of results in patent US20090181975A1, “NEBIVOLOL IN THE TREATMENT OF SEXUAL DYSFUNCTION” (FOREST LABORATORIES HOLDINGS LIMITED, priority 2008, published 2009).

The subject of test [1] is nitrite plus nitrate (NOx) in rat serum. Description: Serum nitrite plus nitrate (NOx) by Griess colorimetric method. Type of test: in vivo. To be noted: for effect on serum NOx concentration: i.v.: nebivolol 3 mg/kg, atenolol 3 mg/kg, vs vehicle. The method, then:
Total NO derivatives (nitrites plus nitrates) were measured in pre-filtered (10,000 MW pore size) serum samples from the studied rats by the Griess colorimetric method, using a commercial kit for nitrite and nitrate determination from Cayman Chemical Co. (Ann Arbor, Mich.). Serum concentrations of NOx were determined 10 minutes after nebivolol administration.

Test [2] has as its system human corpus cavernosum (HCC) strips. Description: Relaxation of human corpus cavernosum strips contracted with U46619. Type of test: cell-based. To be noted: for relaxation of HCC strips by cumulative addition: U46619 1-3 nM, nebivolol 1 nM to 0.1 mM; for relaxation of HCC strips by cumulative addition / effect on sildenafil-induced relaxation of HCC strips: sildenafil 1 nm to 10 μM; for effect on acetylcholine-induced endothelium-dependent relaxation of HCC strips: metoprolol 1 μM, nebivolol 0.3 μM; for effect on acetylcholine-induced endothelium-dependent relaxation of HCC strips / effect on sildenafil-induced relaxation of HCC strips: atenolol 1 μM; for effect on sildenafil-induced relaxation of HCC strips: nebivolol at 1 and 10 μM. The method, then: Specimens of human corpus cavernosum were obtained from organ donors and from impotent men at the time of penile prosthesis implantation. Tissues were placed in ice-cold M-400 solution (pH 7.4; 400 mOsm/kg, composition in w/v: 4.19% manitol, 0.2% KH2PO4, 0.97% K2HPO4.3H2O, 0.11% KCl and 0.08% NaHCO3) at the time of removal and transported to the laboratory for utilization within 16 h. Strips of human corpus cavemosum were mounted on force transducers in 8 ml organ baths (37° C.) containing physiological salt solution (PSS) continuously bubbled with 95% O2/5% CO2 mixture to maintain a pH of 7.4. Strips were contracted with the thromboxane receptor agonist U46619 (1-3 nM) and relaxation responses were evaluated by cumulative additions of compounds to the chambers.

Test [3] concerns diabetic rats. Description: Erectile responses to cavernosal nerve electrical stimulation (CNES) in STZ-diabetic rats. The format is in vivo, rat (Sprague-Dawley). To be noted: for erectile responses after sildenafil compared with non diabetic rats treated with sildenafil: 10 days treatment, then sildenafil 0.3 mg/kg i.v. The method, then:
Male Sprague-Dawley rats were used as a model for this study. Diabetes was induced by a single injection of streptozotocin (STZ, 60 mg/kg; i.p.) dissolved in 0.1 M citric acid/trisodic citrate buffer (pH 4-4.5) and was assessed by glycemia determination 72 h after induction. Animals were kept, with free access to food and water, for 8 weeks before experimental assays. Eight weeks after induction of diabetes, rats show reduced erectile responses (Angulo et al., Naunyn-Schmiedeberg's Arch Pharmacol, 358(5), 529-37, 1998; Angulo et al., J. Sex Med., 2, 341-346, 2005). Blood glucose concentration was determined each week and just before the experiment. Insulin levels were not determined. Rats were anesthetized with ketolar and diazepam. The surgical procedure consisted of dissection and isolation of the right cavernous nerve through an abdominal midline incision and exposure of penile crura through a transverse perineal incision. Intracavernosal pressure (ICP) measurements were permitted by insertion of a 23-gauge needle into the right crus. The right carotid artery and left external jugular vein were catheterized for constant blood pressure measurement and saline infusion, respectively. Electrostimulation was performed with a delicate platinum bipolar hook electrode connected to a stimulator and current amplifier. The parameters of electrical stimulation consisted of pulses with a duration of 0.3 ms and 1.5 mA of current intensity for 1 min. Frequency-response curves were performed by applying stimulation at 1, 3 and 10 Hz with a lapse of 3 min between each increase of frequency (Angulo et al., J. Sex Med., 2, 341-346, 2005). […] After this period of treatment, the diabetic rats were anesthetized and ICP responses to electrical stimulation were evaluated. After an equilibration period, the PDE5 inhibitor sildenafil (0.3 mg/kg) or the vehicle (25% glycofurol) was intravenously administered. Forty five minutes later, ICP responses were again determined

The subject of test [4] is nitrite plus nitrate (NOx) in rat serum. The experiment in a line: Serum NOx in STZ-diabetic rats. The format is in vivo, rat (Sprague-Dawley). To be noted: for effect on NOx content in sera from diabetic rats: 3 and 10 mg/kg/day s.c. for 10 days. How it is done:
Male Sprague-Dawley rats were used as a model for this study. Diabetes was induced by a single injection of streptozotocin (STZ, 60 mg/kg; i.p.) dissolved in 0.1 M citric acid/trisodic citrate buffer (pH 4-4.5) and was assessed by glycemia determination 72 h after induction. Animals were kept, with free access to food and water, for 8 weeks before experimental assays. Eight weeks after induction of diabetes, rats show altered in vivo vascular function (Angulo et al., Naunyn-Schmiedeberg's Arch Pharmacol, 358(5), 529-37, 1998) and reduced erectile responses (Angulo et al., J. Sex Med., 2, 341-346, 2005). Blood glucose concentration was determined each week and just before the experiment. Insulin levels were not determined. Total NO derivatives (nitrites plus nitrates) were measured in pre-filtered (10,000 MW pore size) serum samples from the studied rats by the Griess colorimetric method, using a commercial kit for nitrite and nitrate determination from Cayman Chemical Co. (Ann Arbor, Mich.). See […] et al., Methods Enzymol., 268, 142-151, 1996. […] After 10 days treatment, diabetic rats were anesthetized and erectile responses to cavernosal nerve electrical stimulation (CNES) were determined. After an equilibration period, the PDE-5 inhibitor sildenafil (0.3 mg/kg) or the vehicle (25% glycofurol) was intravenously administered. Forty five minutes later, erectile responses to CNES were again evaluated, and 5 min after CNES application, blood was collected for obtaining plasma and serum, and the penis was excised. Serum samples were immediately frozen until determinations of NOx and TBARS. Plasma and penile tissues were immediately frozen until determinations of cGMP.

In test [5] the test system is cGMP in penile tissue. Description: Penile tissue cGMP in STZ-diabetic rats. Type of test: in vivo, rat (Sprague-Dawley). To be noted: for cGMP content in penile tissue from diabetic rats after administration of sildenafil: then sildenafil 0.3 mg/kg i.v. The method, then: Male Sprague-Dawley rats were used as a model for this study. Diabetes was induced by a single injection of streptozotocin (STZ, 60 mg/kg; i.p.) dissolved in 0.1 M citric acid/trisodic citrate buffer (pH 4-4.5) and was assessed by glycemia determination 72 h after induction. Animals were kept, with free access to food and water, for 8 weeks before experimental assays. Eight weeks after induction of diabetes, rats show altered in vivo vascular function (Angulo et al., Naunyn-Schmiedeberg's Arch Pharmacol, 358(5), 529-37, 1998) and reduced erectile responses (Angulo et al., J. Sex Med., 2, 341-346, 2005). Blood glucose concentration was determined each week and just before the experiment. Insulin levels were not determined. Plasma samples were collected, immediately frozen and stored at −80° C. until extraction for cyclic nucleotide assay. Samples were then precipitated in ethanol, centrifuged and the supernatant was dried under a nitrogen stream. Penile tissues were rapidly immersed in liquid nitrogen and were stored at −80° C. until extraction for cyclic nucleotide assay. […] After 10 days treatment, diabetic rats were anesthetized and erectile responses to cavernosal nerve electrical stimulation (CNES) were determined. After an equilibration period, the PDE-5 inhibitor sildenafil (0.3 mg/kg) or the vehicle (25% glycofurol) was intravenously administered. Forty five minutes later, erectile responses to CNES were again evaluated, and 5 min after CNES application, blood was collected for obtaining plasma and serum, and the penis was excised. Serum samples were immediately frozen until determinations of NOx and TBARS. Plasma and penile tissues were immediately frozen until determinations of cGMP.

Where [6] appears, read: 3 mg/kg/day s.c. for 10 days, sildenafil 0.3 mg/kg i.v.
Setting [7] is: 10 mg/kg/day s.c. for 10 days, sildenafil 0.3 mg/kg i.v., atenolol: measured as AUC of ICP.

Take `OC(CNCC(O)C1CCc2cc(F)ccc2O1)C1CCc2cc(F)ccc2O1` (racemic) [nebivolol, α,α′-iminobis(methylene)bis[6-fluoro-2-chromanmethanol]]: the “increase of the concentration of NOx in serum compared to the vehicle” value in test [1] (3 mg/kg i.v.) is recorded as “three-fold increase”. Besides, the “concentration of NOx in serum” value in test [1] (3 mg/kg i.v., 10 minutes after administration, vehicle 4.9±0.4, p<0.05) came out at 15.4 ± 2.8 µM. In addition, in test [1] (sildenafil 0.3 mg/kg), the “effect on serum NOx concentration” value is recorded as “significantly higher than after vehicle”. Further, in test [2], the “relaxation of HCC strips by cumulative addition” value was “modest relaxant effect”, the “effect on acetylcholine-induced endothelium-dependent relaxation of HCC strips” value was “not significantly modified” and the “effect on sildenafil-induced relaxation of HCC strips” value is on record as “significantly potentiated”. Also, the “effect on acetylcholine-induced (endothelium-dependent) relaxation of HCC” value in test [2] (pre-treatment with nebivolol 10 μM) was “potentiated”. Moreover, in test [3] (3 mg/kg/day for 10 days), the “erectile effect of 3 mg/kg/day dose compared with 10 mg/kg/day dose” value is given as “equally as effective as the 10 mg/kg/day dose”. Further, the “potentiation by sildenafil of erectile responses after 10 days treatment” value (from here on “potentiation by sildenafil”) in test [3] (setting [6]) is on record as “No significant potentiation”. For the same compound, the “potentiation by sildenafil” value in test [3] (setting [7]) is “No significant potentiation”. In addition, the “effect on erectile responses in diabetic rats in the absence of the PDE5 inhibitor” value in test [3] (3 and 10 mg/kg/day for 10 days) is recorded as “significantly enhanced”. In test [3] (3 and 10 mg/kg/day for 10 days, no PDE5 inhibitor), the “erectile responses in treated diabetic rats compared with non diabetic rats” value is listed as “not significantly different from those achieved by non diabetic rats”. In addition, in test [3], the “erectile responses after sildenafil compared with non diabetic rats treated with sildenafil” value is “not significant differences”. For the same compound, in test [4], the “effect on NOx content in sera from diabetic rats” value is “significantly increased”. Moreover, the “NOx effect, comparison of doses” value in test [4] (3 vs 10 mg/kg/day) is listed as “more marked with the 3 mg/kg/day dose”. Further, in test [5] (3 and 10 mg/kg/day for 10 days), the “effect on cGMP content in penile tissue from diabetic rats” value was “statistically significant increase” and the “cGMP content in penile tissue from diabetic rats after administration of sildenafil” value is recorded as “significantly higher than those obtained in diabetic rats treated with vehicle”.

With `CCCc1nn(C)c2c(=O)[nH]c(-c3cc(S(=O)(=O)N4CCN(C)CC4)ccc3OCC)nc12` [sildenafil], the “effect on serum NOx concentration” value in test [1] (sildenafil 0.3 mg/kg) is listed as “did not alter NOx levels”. Moreover, the “effect on nebivolol-induced increment in serum NOx” value in test [1] (nebivolol 3 mg/kg i.v., L-NAME 3 mg/kg, ODQ 1 mg/kg, propranolol 1 mg/kg, sildenafil 0.3 mg/kg) is “did not alter NOx levels or affect nebivolol-induced effects”. In addition, in test [2], the “relaxation of HCC strips by cumulative addition” value is listed as “concentration dependent relaxations”. For the same compound, in test [3] (sildenafil 0.3 mg/kg i.v., vehicle-treated diabetic rats), the “effect on erectile responses to CNES in diabetic rats” value is “potentiation of erectile responses”. Besides, in test [4] (sildenafil 0.3 mg/kg i.v.), the “effect on serum NOx content in rats” value is on record as “did not modify”; the “influence on the effects of nebivolol and atenolol on NOx content in sera from diabetic rats” value was “not influenced”. Also, the “effect on cGMP levels in penile tissue from diabetic and non diabetic rats” value in test [5] (sildenafil 0.3 mg/kg i.v.) is listed as “produced an increase”.

As for `CC(C)NCC(O)COc1ccc(CC(N)=O)cc1` (stereo not drawn) [atenolol], in test [1] (sildenafil 0.3 mg/kg), the “effect on serum NOx concentration” value was “did not significantly alter”. Besides, in test [2], the “effect on acetylcholine-induced endothelium-dependent relaxation of HCC strips” value is recorded as “not significantly modified” and the “effect on sildenafil-induced relaxation of HCC strips” value was “not affected”. In addition, the “potentiation by sildenafil” value in test [3] (setting [6]) is “did not reach statistical significance”. The “effect of the higher dose on erectile function in diabetic rats” value in test [3] (10 mg/kg/day for 10 days) was “did not positively affect”. Besides, the “potentiation by sildenafil” value in test [3] (setting [7]) was “reached statistical significance”. Also, the “erectile responses after sildenafil compared with non diabetic rats treated with sildenafil” value in test [3] is given as “significantly reduced erectile responses”. Besides, the “effect on NOx content in sera from diabetic rats” value in test [4] is “did not affect”. Moreover, the “cGMP content in penile tissue from diabetic rats after administration of sildenafil” value in test [5] (3 and 10 mg/kg/day for 10 days) is “did not modify”.
